We go through 26 compounds from BindingDB's records for doi:10.1021/jm0105833 (Harvard University, 2002).

Each structure is given as a SMILES string. Numbered stars: 1 amine (or outer) side, 2 acyl side, 3 side chain; on linkers, the order of the positions; unused ones are H or OH. Square brackets hold non-standard residues; d marks the D form. Peptide text beside a SMILES is read from it. Phe(ψ(S)CH(OH)CH2N)Pro = O=C([C@@H]1CCCN1C[C@H](O)[C@H](Cc1ccccc1)N[*:1])[*:2]; Nle = CCCC[C@H](N)C(=O)O; Orn = NCCC[C@H](N)C(=O)O

Purine nucleoside phosphorylase (Homo sapiens), sequence (P00491 whole entry, looked up): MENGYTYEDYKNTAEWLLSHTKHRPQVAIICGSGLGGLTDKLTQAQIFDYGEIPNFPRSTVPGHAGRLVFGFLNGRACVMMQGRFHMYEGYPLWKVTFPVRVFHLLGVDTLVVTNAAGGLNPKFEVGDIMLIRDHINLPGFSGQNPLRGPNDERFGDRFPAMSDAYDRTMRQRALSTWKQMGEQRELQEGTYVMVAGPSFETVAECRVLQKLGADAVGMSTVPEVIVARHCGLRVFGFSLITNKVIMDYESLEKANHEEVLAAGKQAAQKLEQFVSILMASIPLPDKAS

One test addresses T1, Thermolysin (Bacillus thermoproteolyticus, UniProt P00800).
T1 sequence (P00800 whole entry): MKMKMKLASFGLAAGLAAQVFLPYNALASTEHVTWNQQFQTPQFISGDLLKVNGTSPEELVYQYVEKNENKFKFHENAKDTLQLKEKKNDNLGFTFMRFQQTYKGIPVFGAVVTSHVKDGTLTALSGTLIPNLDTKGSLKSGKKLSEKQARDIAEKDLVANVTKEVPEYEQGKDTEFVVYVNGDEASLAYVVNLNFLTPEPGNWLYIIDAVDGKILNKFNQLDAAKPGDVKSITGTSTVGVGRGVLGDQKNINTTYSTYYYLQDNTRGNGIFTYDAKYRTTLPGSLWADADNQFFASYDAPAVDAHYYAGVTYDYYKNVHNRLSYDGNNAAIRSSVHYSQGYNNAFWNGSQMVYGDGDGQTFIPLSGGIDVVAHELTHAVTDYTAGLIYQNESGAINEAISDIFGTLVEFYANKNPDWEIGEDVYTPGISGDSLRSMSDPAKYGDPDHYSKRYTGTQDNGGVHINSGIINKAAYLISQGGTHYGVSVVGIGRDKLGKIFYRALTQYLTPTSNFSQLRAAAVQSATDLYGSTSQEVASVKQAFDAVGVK
The experiment in a line: Binding affinity against Thermolysin.
`CC(C)C[C@H](N)C(=O)NO` [(S)-2-Amino-4-methyl-pentanoic acid hydroxyamide] gave a Kd of 191 µM.

In turn, `CC(C)[C@H](N)C(=O)N[C@@H](Cc1c[nH]c2ccccc12)C(=O)O` [Val-Trp] (H-Val-Trp-OH) displayed a Kd of 1.23 µM.

The compound `O=[N+]([O-])Nc1ccccc1` [Nitroanilide] showed a Kd of 0.427 µM.

`CC(C)C[C@H](NP(=O)(O)O[C@@H]1O[C@@H](C)[C@H](O)[C@@H](O)[C@H]1O)C(=O)N[C@@H](Cc1c[nH]c2ccccc12)C(=O)O` [(S)-2-{(R)-2-[Hydroxy-((2R,3R,4R,5R,6S)-3,4,5-trihydroxy-6-methyl-tetrahydro-pyran-2-yloxy)-phosphorylamino]-4-methyl-pentanoylamino}-3-(1H-indol-3-yl)-propionic acid]: the Kd is 0.028 µM.

Take `CC(C)C[C@H](NP(=O)(O)O)C(N)=O` [(P-Leu-NH2) (1-Carbamoyl-3-methyl-butyl)-phosphoramidic acid]: binding was put at a Kd of 1.29 µM.

For the compound `CC(C)C[C@H](NC(CCc1ccccc1)C(=O)O)C(=O)N[C@@H](Cc1c[nH]c2ccccc12)C(=O)O` (stereo partly specified), the Kd was 0.074 µM. Compared with the last compound, the Kd is about 17-fold lower.

Another test has as its target Human immunodeficiency virus type 1 protease (Human immunodeficiency virus 1, UniProt Q72874). The experiment in a line: Affinity for HIV Protease.
The compound `COC(=O)[C@@H](NC(=O)[C@@H](NC(=O)[C@H](C)N1CCC([C@H](C)NC(=O)[C@H](C)N)=C[C@@H](Cc2ccccc2)C1)C(C)C)C(C)C` [SB-203238] displayed a Kd of 427 nM.

Compound `CC[C@H](C)[C@H](NC(=O)[C@@H]1CCCN1C[C@H](O)[C@H](Cc1ccccc1)NC(=O)[C@H](CC(N)=O)NC(=O)[C@H](CC(C)C)NC(=O)[C@H](CO)NC(C)=O)C(=O)N[C@H](C(=O)OC)C(C)C` (Ac-SLN[Phe(ψ(S)CH(OH)CH2N)Pro]IV-OMe) displayed a Kd of 0.234 nM.

Take `O=C(N[C@H]1c2ccccc2C[C@H]1O)[C@H](Cc1ccccc1)CC(O)C[C@@H](Cc1ccccc1)C(=O)N[C@H]1c2ccccc2C[C@H]1O` [L-700417]: the Kd was 0.708 nM. This Kd lies about 3-fold higher than the previous one.

In turn, `CC(C)CN(C[C@@H](O)[C@H](Cc1ccccc1)NC(=O)O[C@H]1CCOC1)S(=O)(=O)c1ccc(N)cc1` [VX-478] came in with a Kd of 0.589 nM.

In the case of `CC(C)[C@H](NC(=O)N(C)Cc1ccccn1)C(=O)N[C@@H](Cc1ccccc1)[C@@H](O)[C@H](O)[C@H](Cc1ccccc1)NC(=O)[C@@H](NC(=O)N(C)Cc1ccccn1)C(C)C` [(2S)-N-[(2S,3R,4R,5S)-3,4-dihydroxy-5-[(2S)-3-methyl-2-{[methyl(pyridin-2-ylmethyl)carbamoyl]amino}butanamido]-1,6-diphenylhexan-2-yl]-3-methyl-2-{[methyl(pyridin-2-ylmethyl)carbamoyl]amino}butanamide], the Kd amounted to 0.977 nM.

Take `C=CO` [E1203]: the affinity, expressed as Kd, was 3.9 nM.

For the compound `CC(C)[C@H](NC(=O)N(C)Cc1ccccn1)C(=O)N[C@@H](Cc1ccccc1)[C@H](O)[C@H](O)[C@H](Cc1ccccc1)NC(=O)[C@@H](NC(=O)N(C)Cc1ccccn1)C(C)C` [(2S)-N-[(2S,3R,4S,5S)-3,4-dihydroxy-5-[(2S)-3-methyl-2-{[methyl(pyridin-2-ylmethyl)carbamoyl]amino}butanamido]-1,6-diphenylhexan-2-yl]-3-methyl-2-{[methyl(pyridin-2-ylmethyl)carbamoyl]amino}butanamide], binding was put at a Kd of 0.0832 nM. Compared with the last compound, the Kd is about 47-fold lower.

Regarding `CC(C)[C@H](NC(=O)N(C)Cc1ccccn1)C(=O)N[C@@H](Cc1ccccc1)[C@H](O)[C@@H](O)[C@H](Cc1ccccc1)NC(=O)[C@@H](NC(=O)N(C)Cc1ccccn1)C(C)C` [JMC51852 Inhibitor PP], binding was characterised by a dissociation constant (Kd) of 0.0759 nM.

`CC(C)[C@H](NC(=O)N(C)Cc1ccccn1)C(=O)N[C@@H](Cc1ccccc1)C[C@@H](O)[C@H](Cc1ccccc1)NC(=O)[C@@H](NC(=O)N(C)Cc1ccccn1)C(C)C` [(2S)-N-[(2S,3R,5S)-3-hydroxy-5-[(2S)-3-methyl-2-{[methyl(pyridin-2-ylmethyl)carbamoyl]amino}butanamido]-1,6-diphenylhexan-2-yl]-3-methyl-2-{[methyl(pyridin-2-ylmethyl)carbamoyl]amino}butanamide] displayed a Kd of 0.0347 nM. Compared with the last compound, the Kd is about 2.2-fold lower.

`O=C1N(Cc2ccc3ccccc3c2)[C@H](Cc2ccccc2)[C@H](O)[C@@H](O)[C@@H](Cc2ccccc2)N1Cc1ccc2ccccc2c1` yielded a Kd of 0.302 nM.

`CC1(C)S[C@H]([C@H](NC(=O)Cc2ccccc2)C(=O)NCc2ccccc2)N[C@H]1C(=O)N[C@@H](CO)Cc1ccccc1` [GR-126045] gave a Kd of 7.9 nM. Compared with the last compound, the Kd is about 26-fold higher.

The compound `CC1(C)SC(C(NC(=O)Cc2ccccc2)C(=O)NCc2ccccc2)NC1C(=O)NC(Cc1ccccc1)C(O)CC(=O)NCC1=NC2C=CC=CC2=N1` (stereo unspecified) [GR-137615] came in with a Kd of 0.204 nM.

For the compound `CCCC[C@H](NC(=O)[C@H](CCCC)NC(=O)[C@@H](NC(=O)[C@@H](NC(C)=O)[C@@H](C)O)[C@@H](C)CC)C(=O)N[C@@H](CCCN)C(=O)N[C@@H](CCCN=C(N)N)C(N)=O` (Ac-TI[Nle][Nle][Orn]R-NH2), binding was put at a Kd of 776 nM.

For a further test, the target named is Serine protease 1 (Homo sapiens, UniProt P07477). The experiment in a line: Binding affinity against trypsin.
Serine protease 1, sequence (P07477 whole entry): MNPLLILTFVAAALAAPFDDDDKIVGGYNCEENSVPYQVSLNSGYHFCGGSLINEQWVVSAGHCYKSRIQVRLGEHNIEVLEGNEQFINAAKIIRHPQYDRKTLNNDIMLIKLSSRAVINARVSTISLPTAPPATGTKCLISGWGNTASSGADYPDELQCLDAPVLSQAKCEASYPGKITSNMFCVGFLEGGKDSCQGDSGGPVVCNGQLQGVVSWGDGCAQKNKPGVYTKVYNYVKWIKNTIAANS
As for `NCCCCc1ccccc1` [4-Phenyl-butylamine], binding was put at a Kd of 20000 µM.

The next test concerns the target T2, Fatty acid-binding protein, intestinal (Homo sapiens, UniProt P12104).
T2 sequence (P12104 whole entry): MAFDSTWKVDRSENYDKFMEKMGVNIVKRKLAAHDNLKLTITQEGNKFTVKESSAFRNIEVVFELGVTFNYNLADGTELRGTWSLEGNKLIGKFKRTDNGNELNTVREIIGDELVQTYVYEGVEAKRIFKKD
The experiment in a line: Binding affinity against Fatty acid-binding protein.
Turning to `CCCCCCCCCCCCCCCC(=O)O`, the Kd is 3.72 µM. This lies in the single-digit micromolar range.

The next test has as its target T3, Mast cell carboxypeptidase A (Homo sapiens, UniProt P15088).
T3 sequence (P15088 whole entry): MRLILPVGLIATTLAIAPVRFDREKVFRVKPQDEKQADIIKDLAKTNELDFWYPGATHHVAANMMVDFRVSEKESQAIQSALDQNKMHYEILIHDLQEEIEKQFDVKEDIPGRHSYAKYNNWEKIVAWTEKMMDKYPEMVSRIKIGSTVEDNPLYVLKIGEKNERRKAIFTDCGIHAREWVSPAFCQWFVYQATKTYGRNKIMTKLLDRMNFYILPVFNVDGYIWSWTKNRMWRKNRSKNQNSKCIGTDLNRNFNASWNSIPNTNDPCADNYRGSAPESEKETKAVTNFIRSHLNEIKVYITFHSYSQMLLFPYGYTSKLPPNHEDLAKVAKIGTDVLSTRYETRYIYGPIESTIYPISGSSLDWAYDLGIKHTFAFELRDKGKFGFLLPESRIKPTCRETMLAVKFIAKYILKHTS
The experiment in a line: Binding affinity against Carboxypeptidase A.
For the compound `NCCCC[C@H](NC(=O)CN)C(=O)O` [(S)-6-Amino-2-(2-amino-acetylamino)-hexanoic acid] (H-Gly-Lys-OH), the Kd amounted to 129 µM.

For another test, the target named is Prothrombin (Homo sapiens, UniProt P00734). The experiment in a line: Binding affinity against thrombin.
In the case of `N=C(N)NCCC[C@H](NC(=O)[C@@H]1CCCN1C(=O)[C@@H](N)Cc1ccccc1)C(=O)O` [5-amino(imino)methylamino-2-[1-[2-amino-3-phenyl-(2S)-propanoyl]-(5S)-dihydro-1H-5-pyrrolylcarboxamido]-(2S)-pentanoic acid], binding was put at a Kd of 0.575 µM.

A further test has as its target Purine nucleoside phosphorylase (Homo sapiens) (UniProt P00491). The experiment in a line: Binding affinity against Purine Nucleoside Phosphorylase.
In the case of `O=P(O)(O)OP(=O)(O)OP(=O)(O)OP(=O)(O)OP(=O)(O)OC[C@H]1O[C@@H](n2cnc3cncnc32)[C@H](O)[C@@H]1O`, binding was characterised by a dissociation constant (Kd) of 1.1 µM.

The compound `O=P(O)(O)OP(=O)(O)OC[C@H]1O[C@@H](n2cnc3cncnc32)[C@H](O)[C@@H]1O` yielded a Kd of 0.603 µM.

In the case of `O=P(O)(O)OP(=O)(O)OP(=O)(O)OP(=O)(O)OC[C@H]1O[C@@H](n2cnc3cncnc32)[C@H](O)[C@@H]1O`, the Kd worked out at 1.41 µM. This Kd lies about 2.3-fold higher than the previous one.

Usually Kd stands for the equilibrium constant for the complex coming apart. Lower therefore signals a tighter complex.
